{"source": "patent US11965039B2", "about": "“Compstatin analogues and their medical uses” (priority 2018, dated 2024)", "key": {"[1]": {"test_system": "classical complement pathway", "test": "In vitro haemolysis assay (inhibition of classical complement pathway)", "type": "cell-based, human", "conditions": "human serum, sensitized sheep red blood cells; Table 3, given as upper bounds; read-out: IC50, inhibition of hemolysis", "procedure,_shortened": "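Compound dilutions preincubated 15 min at room temperature with diluted human serum (titrated per batch for 70-90% maximal haemolysis), then antibody-sensitized sheep RBC (10^7/well) added for 30 min at 37 °C in Tris/casein buffer, pH 7.4. Stopped with EDTA; haemolysis read at 405 nm; IC50 by 4PL fit.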"}, "[2]": {"test": "Solubility test at 10 mg/mL (visual inspection and light scattering)", "type": "physicochemical", "conditions": "for Solubility, Condition 1: Acetate pH 4; for Solubility, Condition 2: Acetate pH 5; for Solubility, Condition 3: Phosphate pH 6; for Solubility, Condition 4: Phosphate pH 7; for Solubility, Condition 5: Phosphate pH 7.5"}}, "note": "Starred links: 1 amine or outer side, 2 acyl side, 3 side chain; linkers in the order of their positions; H or OH if unused. Positions of bridges follow the written chain, without caps; N, C: chain ends. Non-standard residues stand in square brackets, D forms with d. Residues, ends and D or L forms follow the SMILES beside them. Groups on a side chain read outwards from the residue. *: point of attachment. Trp(1-Me) = Cn1cc(C[C@H](N)C(=O)O)c2ccccc21; C16 diacid = O=C(O)CCCCCCCCCCCCCCC(=O)*; γGlu = O=C(O)[C@H](CCC(=O)[*:2])N[*:1]; AEEA = NCCOCCOCC(=O)O; Sar = CNCC(=O)O"}
{"molecule": "CC[C@H](C)[C@@H]1NC(=O)[C@@H](NC(=O)CN(C)C(=O)[C@H](CCC(=O)O)NC(=O)[C@H](CO)NC(C)=O)CSSC[C@@H](C(=O)N(C)CC(=O)N[C@@H](CCC(=O)O)C(=O)N[C@@H](C)C(N)=O)NC(=O)[C@H](CCCNC(=N)N)NC(=O)[C@H](Cc2c[nH]cn2)NC(=O)[C@H](CCC(=O)O)NC(=O)CNC(=O)[C@H](Cc2c[nH]c3ccccc23)NC(=O)[C@H](CC(=O)O)NC(=O)[C@H](CCC(N)=O)NC(=O)[C@H](Cc2cn(C)c3ccccc23)NC1=O", "note": "[Compound 81] (Ac-SE[Sar]CI[Trp(1-Me)]QDWGEHRC[Sar]EA-NH2; disulfide 4-14)", "values": [{"measurement": "IC50", "setting": "[1]", "value": "< 100", "unit": "nM"}, {"measurement": "Solubility, Condition 1", "setting": "[2]", "value": "− (“−” denotes lack of solubility at the given condition, as UV absorbance at 340 nm exceeds 0.1 AU and/or it is visibly turbid or contains particles)"}, {"measurement": "Solubility, Condition 2", "setting": "[2]", "value": "− (“−” denotes lack of solubility at the given condition, as UV absorbance at 340 nm exceeds 0.1 AU and/or it is visibly turbid or contains particles)"}, {"measurement": "Solubility, Condition 3", "setting": "[2]", "value": "+ (“+” denotes solubility at the given condition, as determined by UV absorbance being less than 0.1 AU at 340 nm and the sample being clear when manually inspected)"}, {"measurement": "Solubility, Condition 4", "setting": "[2]", "value": "+ (“+” denotes solubility at the given condition, as determined by UV absorbance being less than 0.1 AU at 340 nm and the sample being clear when manually inspected)"}, {"measurement": "Solubility, Condition 5", "setting": "[2]", "value": "+ (“+” denotes solubility at the given condition, as determined by UV absorbance being less than 0.1 AU at 340 nm and the sample being clear when manually inspected)"}]}
{"molecule": "CC[C@H](C)[C@@H]1NC(=O)[C@@H](NC(=O)[C@H](Cc2ccccc2)NC(C)=O)CSSC[C@@H](C(=O)N[C@H](C(=O)NCC(=O)N[C@@H](C)C(=O)N[C@@H](CCC(=O)O)C(=O)N[C@@H](CO)C(=O)N[C@@H](CCCCNC(=O)COCCOCCNC(=O)COCCOCCNC(=O)CC[C@H](NC(=O)CCCCCCCCCCCCCCC(=O)O)C(=O)O)C(N)=O)[C@@H](C)O)NC(=O)[C@H](CCCNC(=N)N)NC(=O)[C@H](Cc2c[nH]cn2)NC(=O)[C@H](CCC(=O)O)NC(=O)CNC(=O)[C@H](Cc2c[nH]c3ccccc23)NC(=O)[C@H](CC(=O)O)NC(=O)[C@H](CCC(N)=O)NC(=O)[C@H](Cc2cn(C)c3ccccc23)NC1=O", "note": "[Compound 102] (Ac-FCI[Trp(1-Me)]QDWGEHRCTGAESK([AEEA-AEEA-γGlu-C16 diacid])-NH2; disulfide 2-12)", "values": [{"measurement": "IC50", "setting": "[1]", "value": "< 100", "unit": "nM"}, {"measurement": "Solubility, Condition 1", "setting": "[2]", "value": "− (“−” denotes lack of solubility at the given condition, as UV absorbance at 340 nm exceeds 0.1 AU and/or it is visibly turbid or contains particles)"}, {"measurement": "Solubility, Condition 2", "setting": "[2]", "value": "+ (“+” denotes solubility at the given condition, as determined by UV absorbance being less than 0.1 AU at 340 nm and the sample being clear when manually inspected)"}, {"measurement": "Solubility, Condition 3", "setting": "[2]", "value": "+ (“+” denotes solubility at the given condition, as determined by UV absorbance being less than 0.1 AU at 340 nm and the sample being clear when manually inspected)"}, {"measurement": "Solubility, Condition 4", "setting": "[2]", "value": "+ (“+” denotes solubility at the given condition, as determined by UV absorbance being less than 0.1 AU at 340 nm and the sample being clear when manually inspected)"}, {"measurement": "Solubility, Condition 5", "setting": "[2]", "value": "+ (“+” denotes solubility at the given condition, as determined by UV absorbance being less than 0.1 AU at 340 nm and the sample being clear when manually inspected)"}]}
{"molecule": "CC[C@H](C)[C@@H]1NC(=O)[C@@H](NC(=O)[C@H](Cc2ccc(O)cc2)NC(=O)[C@H](C)NC(=O)[C@H](CO)NC(=O)CNC(=O)[C@H](CCC(=O)O)NC(C)=O)CSSC[C@@H](C(=O)N(C)CC(=O)N[C@@H](CCC(=O)O)C(N)=O)NC(=O)[C@H](CCCCNC(=O)COCCOCCNC(=O)COCCOCCNC(=O)CC[C@H](NC(=O)CCCCCCCCCCCCCCC(=O)O)C(=O)O)NC(=O)[C@H](Cc2c[nH]cn2)NC(=O)[C@H](CCC(=O)O)NC(=O)CNC(=O)[C@H](Cc2c[nH]c3ccccc23)NC(=O)[C@H](CC(=O)O)NC(=O)[C@H](CCC(N)=O)NC(=O)[C@H](Cc2cn(C)c3ccccc23)NC1=O", "note": "[Compound 103, Ac-EGSAYC(1)I[1-Me-Trp]QDWGEH-[K([15-carboxy-pentadecanoyl][γGlu][Peg3][Peg3])]-C(1)[Sar]E-NH2] (Ac-EGSAYCI[Trp(1-Me)]QDWGEHK([AEEA-AEEA-γGlu-C16 diacid])C[Sar]E-NH2; disulfide 6-16)", "values": [{"measurement": "IC50", "setting": "[1]", "value": "< 100", "unit": "nM"}, {"measurement": "Solubility, Condition 1", "setting": "[2]", "value": "− (“−” denotes lack of solubility at the given condition, as UV absorbance at 340 nm exceeds 0.1 AU and/or it is visibly turbid or contains particles)"}, {"measurement": "Solubility, Condition 2", "setting": "[2]", "value": "+ (“+” denotes solubility at the given condition, as determined by UV absorbance being less than 0.1 AU at 340 nm and the sample being clear when manually inspected)"}, {"measurement": "Solubility, Condition 3", "setting": "[2]", "value": "+ (“+” denotes solubility at the given condition, as determined by UV absorbance being less than 0.1 AU at 340 nm and the sample being clear when manually inspected)"}, {"measurement": "Solubility, Condition 4", "setting": "[2]", "value": "+ (“+” denotes solubility at the given condition, as determined by UV absorbance being less than 0.1 AU at 340 nm and the sample being clear when manually inspected)"}, {"measurement": "Solubility, Condition 5", "setting": "[2]", "value": "+ (“+” denotes solubility at the given condition, as determined by UV absorbance being less than 0.1 AU at 340 nm and the sample being clear when manually inspected)"}]}
{"molecule": "CC[C@H](C)[C@@H]1NC(=O)[C@@H](NC(=O)[C@H](Cc2ccc(O)cc2)NC(=O)[C@H](CCC(=O)O)NC(=O)[C@H](CO)NC(=O)CNC(=O)[C@H](CCC(=O)O)NC(=O)CCCCCCCCCCCCCCC(=O)O)CSSC[C@@H](C(=O)N(C)CC(=O)N[C@@H](CCC(=O)O)C(N)=O)NC(=O)[C@H](CCCNC(=N)N)NC(=O)[C@H](Cc2c[nH]cn2)NC(=O)[C@H](CCC(=O)O)NC(=O)CNC(=O)[C@H](Cc2c[nH]c3ccccc23)NC(=O)[C@H](CC(=O)O)NC(=O)[C@H](CCC(N)=O)NC(=O)[C@H](Cc2cn(C)c3ccccc23)NC1=O", "note": "[Compound 107] ({C16 diacid}-EGSEYCI[Trp(1-Me)]QDWGEHRC[Sar]E-NH2; disulfide 6-16)", "values": [{"measurement": "IC50", "setting": "[1]", "value": "< 100", "unit": "nM"}, {"measurement": "Solubility, Condition 1", "setting": "[2]", "value": "− (“−” denotes lack of solubility at the given condition, as UV absorbance at 340 nm exceeds 0.1 AU and/or it is visibly turbid or contains particles)"}, {"measurement": "Solubility, Condition 2", "setting": "[2]", "value": "− (“−” denotes lack of solubility at the given condition, as UV absorbance at 340 nm exceeds 0.1 AU and/or it is visibly turbid or contains particles)"}, {"measurement": "Solubility, Condition 3", "setting": "[2]", "value": "+ (“+” denotes solubility at the given condition, as determined by UV absorbance being less than 0.1 AU at 340 nm and the sample being clear when manually inspected)"}, {"measurement": "Solubility, Condition 4", "setting": "[2]", "value": "+ (“+” denotes solubility at the given condition, as determined by UV absorbance being less than 0.1 AU at 340 nm and the sample being clear when manually inspected)"}, {"measurement": "Solubility, Condition 5", "setting": "[2]", "value": "+ (“+” denotes solubility at the given condition, as determined by UV absorbance being less than 0.1 AU at 340 nm and the sample being clear when manually inspected)"}]}
